The source of these data is patent US12486253B2, “Therapeutics for the degradation of mutant BRAF” (C4 THERAPEUTICS, INC., priority 2021, dated 2025).

Structures are written as SMILES. Values joined by “and” are separate entries in the source; they are usually repeats but may differ in a detail not shown here. Identical values can stand only once. Like-named read-outs stand apart in the source and are kept apart here.

The assay concerns the target BRAF V600E (Homo sapiens, UniProt P15056, V600E). In words: HiBiT cellular BRAF^V600E degradation assay. As to conditions: for DC50: concentration at which 50% of total cellular BRAF^V600E is degraded; for Emax: read-out: HiBit 24 h Emax. The assay is classed as cell-based. Background: With HiBiT, luminescence reflects the tagged protein that the partner subunit can reach.

Where [1] appears, read: A375.10 cells, 24 h, residual protein remaining in the cell.

BRAF V600E, sequence (P15056 whole entry V600E): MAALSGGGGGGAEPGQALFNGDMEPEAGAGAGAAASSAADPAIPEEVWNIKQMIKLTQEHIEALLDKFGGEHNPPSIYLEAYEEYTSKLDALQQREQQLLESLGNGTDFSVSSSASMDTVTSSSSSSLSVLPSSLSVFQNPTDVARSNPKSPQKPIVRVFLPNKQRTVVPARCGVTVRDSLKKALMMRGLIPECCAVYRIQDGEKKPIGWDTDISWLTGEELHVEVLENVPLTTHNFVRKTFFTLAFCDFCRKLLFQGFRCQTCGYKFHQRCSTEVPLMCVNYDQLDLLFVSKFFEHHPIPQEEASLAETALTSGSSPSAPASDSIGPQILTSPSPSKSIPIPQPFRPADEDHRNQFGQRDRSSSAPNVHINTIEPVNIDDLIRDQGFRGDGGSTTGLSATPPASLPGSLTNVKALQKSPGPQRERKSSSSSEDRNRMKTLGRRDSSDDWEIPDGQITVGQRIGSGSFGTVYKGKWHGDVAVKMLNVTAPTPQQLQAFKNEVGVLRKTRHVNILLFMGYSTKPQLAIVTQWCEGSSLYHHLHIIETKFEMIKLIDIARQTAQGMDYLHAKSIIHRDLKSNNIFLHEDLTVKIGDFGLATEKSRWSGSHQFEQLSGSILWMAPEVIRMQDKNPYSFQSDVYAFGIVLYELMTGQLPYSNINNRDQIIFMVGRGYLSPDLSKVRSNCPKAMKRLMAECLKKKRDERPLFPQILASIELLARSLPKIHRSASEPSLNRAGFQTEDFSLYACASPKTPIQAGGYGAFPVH

On to `CCN(C)S(=O)(=O)Nc1ccc(F)c(Oc2ccc3ncn([C@H]4COC5(CCN(C6CCC(c7ccc(NC8CCC(=O)NC8=O)cc7F)CC6)CC5)C4)c(=O)c3c2)c1C#N` (single isomer, unassigned) [Example 131], for which the “HiBit 24 h Emax” value under setting [1] was 8.5% and 8.05%.

Take `CCN(C)S(=O)(=O)Nc1ccc(F)c(Oc2ccc3ncn(-c4cnc(N5CCN(C(=O)CN6CCC(c7ccc(N[C@@H]8CCC(=O)NC8=O)cc7F)CC6)CC5)nc4)c(=O)c3c2)c1F` [Example 139, 3-[2-[4-[2-[4-[4-[[(3R)-2,6-dioxopiperidin-3-yl]amino]-2-fluorophenyl]piperidin-1-yl]acetyl]piperazin-1-yl]pyrimidin-5-yl]-6-[3-[[ethyl(methyl)sulfamoyl]amino]-2,6-difluorophenoxy]-4-oxoquinazoline]: the DC50 (A375.10 cells, 24 h) came out at 41.2 nM. Moreover, under setting [1], the maximum response (Emax) came out at 13.2%. Turning to `CCN(C)S(=O)(=O)Nc1ccc(F)c(Oc2ccc3ncn(-c4cnc(N5CCN(C(=O)CN6CCC(c7ccc(N[C@H]8CCC(=O)NC8=O)cc7F)CC6)CC5)nc4)c(=O)c3c2)c1C#N` [Example 92, 6-[2-cyano-3-[[ethyl(methyl)sulfamoyl]amino]-6-fluorophenoxy]-3-[2-[4-[2-[4-[4-[[(3S)-2,6-dioxopiperidin-3-yl]amino]-2-fluorophenyl]piperidin-1-yl]acetyl]piperazin-1-yl]pyrimidin-5-yl]-4-oxoquinazoline], the Emax was determined as 7.37%. It took 8.71 nM to reach half-maximal degradation (A375.10 cells, 24 h) (DC50). On to `CCN(C)S(=O)(=O)Nc1ccc(F)c(Oc2ccc3ncn([C@H]4COC5(CCN(C(=O)CC6(O)CCN(c7cc8c(cc7F)c(N7CCC(=O)NC7=O)nn8C)CC6)CC5)C4)c(=O)c3c2OC)c1C#N` (single isomer, unassigned) [Example 181], for which the DC50 (A375.10 cells, 24 h) was 19.9 nM. Further, the maximal effect (Emax) under setting [1] amounted to 19.1%.

The compound `CCN(C)S(=O)(=O)Nc1ccc(F)c(Oc2ccc3ncn(C4COC5(CCN(C(=O)CN6CCC(c7ccc(NC8CCC(=O)NC8=O)cc7F)CC6)CC5)C4)c(=O)c3c2F)c1C#N` (stereo not shown) [Example 51, 3-[6-[2-cyano-3-[[ethyl(methyl)sulfamoyl]amino]-6-fluorophenoxy]-5-fluoro-4-oxoquinazolin-3-yl]-8-[2-[4-[4-[(2,6-dioxopiperidin-3-yl)amino]-2-fluorophenyl]piperidin-1-yl]acetyl]-1-oxa-8-azaspiro[4.5]decane] came in with a DC50 (A375.10 cells, 24 h) of 29.6 nM. The maximal response (Emax) under setting [1] was 10.9%. Turning to `CCN(C)S(=O)(=O)Nc1ccc(F)c(Oc2ccc3ncn(-c4cnc(N5CCN(C(=O)[C@H](CO)N6CCC(c7ccc(N[C@H]8CCC(=O)NC8=O)cc7F)CC6)CC5)nc4)c(=O)c3c2)c1C#N` [Example 98, 6-[2-cyano-3-[[ethyl(methyl)sulfamoyl]amino]-6-fluorophenoxy]-3-[2-[4-[(2S)-2-[4-[4-[[(3S)-2,6-dioxopiperidin-3-yl]amino]-2-fluorophenyl]piperidin-1-yl]-3-hydroxypropanoyl]piperazin-1-yl]pyrimidin-5-yl]-4-oxoquinazoline], the maximal effect (Emax) is 10.1%. The compound `CC(C)S(=O)(=O)Nc1ccc(F)c(Oc2ccc3ncn([C@H]4COC5(CCN(C(=O)CN6CCC(c7ccc8c(C9CCC(=O)NC9=O)nn(C)c8c7)CC6)CC5)C4)c(=O)c3c2)c1C#N` (stereo partly drawn) [Example 168, N-[2-cyano-3-[3-[(3R)-8-[2-[4-[3-(2,6-dioxopiperidin-3-yl)-1-methylindazol-6-yl]piperidin-1-yl]acetyl]-1-oxa-8-azaspiro[4.5]decan-3-yl]-4-oxoquinazolin-6-yl]oxy-4-fluorophenyl]propane-2-sulfonamide] showed a DC50 (A375.10 cells, 24 h) of 36.5 nM. Also, the Emax under setting [1] worked out at 14.1%. For `N#Cc1c(NS(=O)(=O)C2CCCC2)ccc(F)c1Oc1ccc2ncn(-c3cnc(N4CCN(C(=O)CN5CCC(c6ccc(N[C@H]7CCC(=O)NC7=O)cc6F)CC5)CC4)nc3)c(=O)c2c1` [Example 109, N-[2-cyano-3-[3-[2-[4-[2-[4-[4-[[(3S)-2,6-dioxopiperidin-3-yl]amino]-2-fluorophenyl]piperidin-1-yl]acetyl]piperazin-1-yl]pyrimidin-5-yl]-4-oxoquinazolin-6-yl]oxy-4-fluorophenyl]cyclopentanesulfonamide], in that order: 12.5 nM and 9.04%. In the same order, the values of `CCN(C)S(=O)(=O)Nc1ccc(F)c(Oc2ccc3ncn(C4CCC5(CC4)CCN(C(=O)CN4CCC(c6ccc7c(C8CCC(=O)NC8=O)nn(C)c7c6)CC4)CC5)c(=O)c3c2)c1C#N` (stereo not shown) [Example 156, 9-[6-[2-cyano-3-[[ethyl(methyl)sulfamoyl]amino]-6-fluorophenoxy]-4-oxoquinazolin-3-yl]-3-[2-[4-[3-(2,6-dioxopiperidin-3-yl)-1-methylindazol-6-yl]piperidin-1-yl]acetyl]-3-azaspiro[5.5]undecane] are 26.6 nM and 21%. For `CCN(C)S(=O)(=O)Nc1ccc(F)c(Oc2ccc3ncn(C4COC5(CCN(C(=O)CN6CCC(c7ccc8c(N9CCC(=O)NC9=O)nn(C)c8c7)CC6)CC5)C4)c(=O)c3c2)c1C#N` (stereo not shown) [Example 148, 3-[6-[2-cyano-3-[[ethyl(methyl)sulfamoyl]amino]-6-fluorophenoxy]-4-oxoquinazolin-3-yl]-8-[2-[4-[3-(2,4-dioxo-1,3-diazinan-1-yl)-1-methylindazol-6-yl]piperidin-1-yl]acetyl]-1-oxa-8-azaspiro[4.5]decane], in that order: 18.4 nM and 8.7%. Consider `CCN(C)S(=O)(=O)Nc1ccc(F)c(Oc2ccc3ncn([C@@H]4CCC5(CCN(C(=O)CN6CCC(c7ccc(N[C@@H]8CCC(=O)NC8=O)cc7F)CC6)CC5)C4)c(=O)c3c2)c1C#N` [Example 44, 6-[2-cyano-3-[[ethyl(methyl)sulfamoyl]amino]-6-fluorophenoxy]-3-[(3R)-8-[2-[4-[4-[[(3R)-2,6-dioxopiperidin-3-yl]amino]-2-fluorophenyl]piperidin-1-yl]acetyl]-8-azaspiro[4.5]decan-3-yl]-4-oxoquinazoline], for which the half-maximal degradation concentration (DC50) (A375.10 cells, 24 h) is 25.1 nM. Further, under setting [1], the maximal response (Emax) worked out at 14.4%. In the same order, the values of `CN(CCF)S(=O)(=O)Nc1ccc(F)c(Oc2ccc3ncn(-c4cnc(N5CCN(C(=O)CN6CCC(c7ccc(N[C@@H]8CCC(=O)NC8=O)cc7F)CC6)CC5)nc4)c(=O)c3c2)c1C#N` [Example 120, 6-[2-cyano-6-fluoro-3-[[2-fluoroethyl(methyl)sulfamoyl]amino]phenoxy]-3-[2-[4-[2-[4-[4-[[(3R)-2,6-dioxopiperidin-3-yl]amino]-2-fluorophenyl]piperidin-1-yl]acetyl]piperazin-1-yl]pyrimidin-5-yl]-4-oxoquinazoline] are 13.8 nM and 11.6%.

Consider `CCN(C)S(=O)(=O)Nc1ccc(F)c(Oc2ccc3ncn(-c4cnc(N5CCN(C(=O)CC6(O)CCN(c7cc8c(cc7F)c(N7CCC(=O)NC7=O)nn8C)CC6)CC5)nc4)c(=O)c3c2)c1C#N` [Example 199, 6-[2-cyano-3-[[ethyl(methyl)sulfamoyl]amino]-6-fluorophenoxy]-3-[2-[4-[2-[1-[3-(2,4-dioxo-1,3-diazinan-1-yl)-5-fluoro-1-methylindazol-6-yl]-4-hydroxypiperidin-4-yl]acetyl]piperazin-1-yl]pyrimidin-5-yl]-4-oxoquinazoline], for which, under “A375.10 cells, 24 h”, it took 21.7 nM to reach half-maximal degradation (DC50). The Emax under setting [1] stood at 27.9%. In turn, `CCN(C)S(=O)(=O)Nc1ccc(F)c(Oc2ccc3ncn(CCCC4(C)CCN(C(=O)CN5CCC(c6ccc(NC7CCC(=O)NC7=O)cc6F)CC5)CC4)c(=O)c3c2)c1C#N` (stereo not shown) [Example 12, 6-[2-cyano-3-[[ethyl(methyl)sulfamoyl]amino]-6-fluorophenoxy]-3-[3-[1-[2-[4-[4-[(2,6-dioxopiperidin-3-yl)amino]-2-fluorophenyl]piperidin-1-yl]acetyl]-4-methylpiperidin-4-yl]propyl]-4-oxoquinazoline] came in with a DC50 (A375.10 cells, 24 h) of 29.2 nM. The Emax under setting [1] is 8.33%. For `CCN(C)S(=O)(=O)Nc1ccc(F)c(Oc2ccc3ncn([C@H]4COC5(CCN(C(=O)CC6(O)CCN(c7ccc8c(C9CCC(=O)NC9=O)nn(C)c8c7)CC6)CC5)C4)c(=O)c3c2)c1C#N` (stereo partly drawn) [Example 152, (3R)-3-[6-[2-cyano-3-[[ethyl(methyl)sulfamoyl]amino]-6-fluorophenoxy]-4-oxoquinazolin-3-yl]-8-[2-[1-[3-(2,6-dioxopiperidin-3-yl)-1-methylindazol-6-yl]-4-hydroxypiperidin-4-yl]acetyl]-1-oxa-8-azaspiro[4.5]decane], in that order: 27.2 nM and 25.2%. In the same order, the values of `CN(CC(F)F)S(=O)(=O)Nc1ccc(F)c(Oc2ccc3ncn(-c4cnc(N5CCN(C(=O)CN6CCC(c7ccc(N[C@H]8CCC(=O)NC8=O)cc7F)CC6)CC5)nc4)c(=O)c3c2)c1C#N` [Example 122, 6-[2-cyano-3-[[2,2-difluoroethyl(methyl)sulfamoyl]amino]-6-fluorophenoxy]-3-[2-[4-[2-[4-[4-[[(3S)-2,6-dioxopiperidin-3-yl]amino]-2-fluorophenyl]piperidin-1-yl]acetyl]piperazin-1-yl]pyrimidin-5-yl]-4-oxoquinazoline] are 27.1 nM and 8.26%. Compound `CCN(C)S(=O)(=O)Nc1ccc(F)c(Oc2ccc3ncc(OCC4CCN(C(=O)CN5CCC(c6ccc(NC7CCC(=O)NC7=O)cc6F)CC5)CC4)nc3c2)c1C#N` (stereo not shown) [Example 216, 7-[2-cyano-3-[[ethyl(methyl)sulfamoyl]amino]-6-fluorophenoxy]-2-[[1-[2-[4-[4-[(2,6-dioxopiperidin-3-yl)amino]-2-fluorophenyl]piperidin-1-yl]acetyl]piperidin-4-yl]methoxy]quinoxaline] came in with a DC50 (A375.10 cells, 24 h) of 25.2 nM. Also, under setting [1], the maximum response (Emax) is 10.1%. In the same order, the values of `CCN(C)S(=O)(=O)Nc1ccc(F)c(Nc2ccc3ncn([C@H]4COC5(CCN(C(=O)CC6CCN(c7cc8c(cc7F)c(N7CCC(=O)NC7=O)nn8C)CC6)CC5)C4)c(=O)c3c2F)c1C#N` (single isomer, unassigned) [Example 202] are 5.17 nM and 23.9%.

Usually DC50 stands for the concentration at which degradation of the target reaches its halfway point. A higher DC50 goes with a less potent degrader. By Emax is commonly meant the size of the effect at its maximum, as opposed to the concentration needed.
